Laboratory results from ChEMBL document CHEMBL1130170, “Orally active trifluoromethyl ketone inhibitors of human leukocyte elastase” (J Med Chem, 1997).
Where a SMILES comes first, the peptide text is derived from it. The star is where a group is joined. CF3 = FC(F)(F)*; Moc = COC(=O)*

Assays:
[1] = Oral integrated area under the concentration vs time curve, for compound in hamster plasma; assay type: ADME, organism-based; conditions: cricetinae
[2] = Oral integrated area under the concentration vs time curve, for compound in rat plasma; assay type: ADME, organism-based
[3] = Intravenous integrated area under the concentration vs time curve, for compound in dog plasma; assay type: ADME, organism-based, Canis lupus familiaris
[4] = Intravenous integrated area under the concentration vs time curve, for compound in hamster plasma; assay type: ADME, organism-based; conditions: cricetinae
[5] = Maximum concentration of the unchanged compound in hamster plasma, recorded in the period 0-6 hr post dose.; assay type: ADME, organism-based; conditions: cricetinae
[6] = Maximum concentration of the unchanged compound in rat plasma, recorded in the period 0-6 hr post dose.; assay type: ADME, organism-based
[7] = Bioavailability in rat; assay type: ADME, organism-based; conditions: in vivo
[8] = Time of maximum concentration of compound in rat plasma.; assay type: ADME, organism-based
[9] = target: T1, Angiotensin-converting enzyme (Oryctolagus cuniculus, UniProt P12822); assay: Binding affinity for rabbit lung Angiotensin I converting enzyme; No inhibition at 188 uM (highest concentration tested)
T1 sequence (P12822 whole entry): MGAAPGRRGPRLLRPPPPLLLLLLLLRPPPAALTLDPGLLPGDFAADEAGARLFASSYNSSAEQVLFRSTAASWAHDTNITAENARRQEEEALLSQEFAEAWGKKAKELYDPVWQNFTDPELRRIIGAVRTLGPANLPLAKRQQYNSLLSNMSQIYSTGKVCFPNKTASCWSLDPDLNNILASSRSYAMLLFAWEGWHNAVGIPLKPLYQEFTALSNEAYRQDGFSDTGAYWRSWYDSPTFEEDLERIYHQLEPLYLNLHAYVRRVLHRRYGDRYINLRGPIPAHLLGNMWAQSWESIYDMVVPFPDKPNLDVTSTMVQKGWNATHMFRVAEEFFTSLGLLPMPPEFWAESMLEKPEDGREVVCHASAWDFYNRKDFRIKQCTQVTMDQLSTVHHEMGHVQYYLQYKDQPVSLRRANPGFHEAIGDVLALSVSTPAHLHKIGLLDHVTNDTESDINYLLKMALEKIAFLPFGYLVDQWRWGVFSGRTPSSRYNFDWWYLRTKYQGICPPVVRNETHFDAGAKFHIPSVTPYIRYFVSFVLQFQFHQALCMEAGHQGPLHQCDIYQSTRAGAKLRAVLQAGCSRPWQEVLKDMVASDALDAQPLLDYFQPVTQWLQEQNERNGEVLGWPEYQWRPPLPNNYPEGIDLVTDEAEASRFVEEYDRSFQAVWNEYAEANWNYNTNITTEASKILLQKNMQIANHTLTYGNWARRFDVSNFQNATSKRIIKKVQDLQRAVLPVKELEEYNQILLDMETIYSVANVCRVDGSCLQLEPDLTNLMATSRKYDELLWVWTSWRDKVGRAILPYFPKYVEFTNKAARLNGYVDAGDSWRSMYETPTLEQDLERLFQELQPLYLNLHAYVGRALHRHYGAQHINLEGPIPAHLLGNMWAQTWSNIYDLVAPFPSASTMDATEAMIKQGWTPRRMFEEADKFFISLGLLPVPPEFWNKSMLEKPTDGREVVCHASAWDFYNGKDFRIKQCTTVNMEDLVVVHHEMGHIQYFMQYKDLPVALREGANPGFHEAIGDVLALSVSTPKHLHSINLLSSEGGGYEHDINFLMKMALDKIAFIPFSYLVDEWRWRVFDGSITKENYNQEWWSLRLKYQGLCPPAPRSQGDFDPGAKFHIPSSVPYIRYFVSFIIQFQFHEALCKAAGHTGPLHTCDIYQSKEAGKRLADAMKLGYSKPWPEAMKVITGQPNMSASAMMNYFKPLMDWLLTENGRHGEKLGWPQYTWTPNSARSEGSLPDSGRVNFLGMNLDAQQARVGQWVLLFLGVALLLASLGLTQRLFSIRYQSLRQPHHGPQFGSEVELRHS

[10] = target: Procathepsin L (Bos taurus, UniProt P25975); assay: Binding affinity for bovine spleen cathepsin L; No inhibition at 188 uM (highest concentration tested)
[11] = system: Cricetinae gen. sp.; assay: Effective dose in the Acute Hemarrhagic Assay model after i.v. administration; assay type: functional, Cricetulus griseus; conditions: iv
[12] = system: Cricetinae gen. sp.; assay: Effective dose in the Acute Hemarrhagic Assay model after oral administration; assay type: functional, Cricetulus griseus
[13] = target: T2, Papain (Carica papaya, UniProt P00784); assay: Binding affinity for papaya papain; No inhibition at 188 uM (highest concentration tested)
T2 sequence (P00784 whole entry): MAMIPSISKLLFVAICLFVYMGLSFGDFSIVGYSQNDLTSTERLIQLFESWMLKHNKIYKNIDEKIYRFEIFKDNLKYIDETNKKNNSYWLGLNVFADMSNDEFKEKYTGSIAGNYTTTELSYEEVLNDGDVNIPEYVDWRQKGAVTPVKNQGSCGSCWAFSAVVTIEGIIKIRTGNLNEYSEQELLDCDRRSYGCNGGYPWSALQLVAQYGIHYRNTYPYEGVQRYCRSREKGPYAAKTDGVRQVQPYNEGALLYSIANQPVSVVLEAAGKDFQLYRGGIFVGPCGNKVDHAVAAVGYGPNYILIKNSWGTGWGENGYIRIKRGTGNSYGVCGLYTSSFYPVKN

[14] = Intravenous integrated area under the concentration vs time curve, for compound in rat plasma; assay type: ADME, organism-based
[15] = target: Prothrombin (Homo sapiens, UniProt P00734); assay: Binding affinity for human plasma thrombin; No inhibition at 188 uM (highest concentration tested); assay type: cell-free

Sequence of Procathepsin L (P25975 whole entry): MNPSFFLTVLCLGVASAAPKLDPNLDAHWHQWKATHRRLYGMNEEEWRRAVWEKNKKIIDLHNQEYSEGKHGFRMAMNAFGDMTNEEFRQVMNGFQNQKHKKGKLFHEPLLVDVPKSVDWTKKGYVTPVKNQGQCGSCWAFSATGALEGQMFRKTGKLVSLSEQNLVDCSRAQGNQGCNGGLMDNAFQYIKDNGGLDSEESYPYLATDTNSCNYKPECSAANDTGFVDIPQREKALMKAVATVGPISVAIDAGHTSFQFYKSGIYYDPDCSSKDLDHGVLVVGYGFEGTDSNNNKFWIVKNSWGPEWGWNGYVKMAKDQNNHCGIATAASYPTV

Compound	AUC [1] [ng·h/mL]	AUC [2] [ng·h/mL]	AUC [3] [ng·h/mL]	AUC [4] [ng·h/mL]	Cmax [5] [ng/mL]	Cmax [6] [ng/mL]	bioavailability [7] [%]	Tmax [8] [min]	Ki [9]	Ki [10]	ED50 [11] [mg/kg]	ED50 [12] [mg/kg]	Ki [13]	AUC [14] [ng·h/mL]	Ki [15]
COC(=O)N[C@H](C(=O)N1CCC[C@H]1C(=O)N[C@H](C(=O)C(F)(F)F)C(C)C)C(C)C (Moc-Val-Pro-Val-CF3)	2160	5480	9370	2890	1460	3690	84	30	No inhibition	No inhibition	0.51	2	No inhibition	6540	No inhibition
COc1ccc(C(=O)N[C@H](C(=O)N2CCC[C@H]2C(=O)N[C@H](C(=O)C(F)(F)F)C(C)C)C(C)C)cc1 (stereo in doubt; 1k)	355	1400	3180	1360	373	972	82	15	No inhibition	No inhibition	0.59	4.9	No inhibition	1700	No inhibition
